Where two headings read alike, the source gives them in different places.
What was measured:
CDK2/CycE = target: T1, CDK2/CycE (Homo sapiens, UniProt P24941); test: CDK2/CycE kinase assay (enzyme test); format: biochemical; conditions: read-out: Inhibition IC50 [nM] CDK2/CycE
T1 construct: GST; purchased Dr. Dieter Marmé, Klinik für Tumorbiologie, Freiburg; host or cells: baculovirus-infected Sf9 insect cells
Procedure: Recombinant CDK2- and CycE-GST-fusion proteins, purified from baculovirus-infected insect cells (Sf9), are obtained by Dr. Dieter Marmé, Klinik für Tumorbiologie [Clinic for Tumor Biology], Freiburg. Histone IIIS, which is used as a kinase substrate, is purchased by the Sigma Company.
The reaction was is stopped by adding EDTA solution (250 mmol, pH 8.0, 14 μl/measuring point).
From each reaction batch, 10 μl applied to P30 filter strips (Wallac Company), and non-incorporated ^33P-ATP is removed by subjecting the filter strips to three washing cycles for 10 minutes each in 0.5% phosphoric acid. After the filter strips are dried for one hour at 70° C., the filter were are covered with scintillator strips (MeltiLex™ A, Wallac Company) and baked for one hour at 90° C. The amount of incorporated ^33P (substrate phosphorylation) is determined by scintillation measurement in a gamma-radiation measuring device (Wallac).

[1] = Solubility (Löslichkeit, g/l); format: physicochemical
MCF-7 cells = test: Proliferation assay, crystal violet staining (cell test), MCF-7; format: cell-based; conditions: Homo sapiens
Procedure: (§1) Cultivated human tumor cells (as indicated) are flattened out at a density of 5000 cells/measuring point in a 96-hole multititer plate in 200 μl of the corresponding growth medium. After 24 hours, the cells of one plate (zero-point plate) are colored with crystal violet (see below), while the medium of the other plates is replaced by fresh culture medium (200 μl), to which the test substances are added at various concentrations (0 μm, as well as in the range of 0.01-30 μm; the final concentration of the solvent dimethyl sulfoxide is 0.5%). The cells are incubated for 4 days in the presence of test substances. The cell proliferation is determined by coloring the cells with crystal violet: the cells are fixed by adding 20 μl/measuring point of a 11% glutaric aldehyde solution for 15 minutes at room temperature. After three washing cycles of the fixed cells with water, the plates are dried at room temperature. The cells are colored by adding 100 μl/measuring point of a 0.1% crystal violet solution (pH is set at 3 by adding acetic acid). After three washing cycles of the colored cells with water, the plates are dried at room temperature. The dye is dissolved by adding 100 μl/measuring point of a 10% acetic acid solution. The extinction is determined by photometry at a wavelength of 595 nm. The change of cell growth, in percent, is calculated by standardization of the measured values to the extinction values of the zero-point plate (=0%) and the extinction of the untreated (0 μm) cells (=100%).

[2] = tested on: human tumor cells (as indicated); test: Proliferation assay, crystal violet staining, other human tumor cells as indicated in the tables; format: cell-based; conditions: 4 days incubation
Procedure: as §1

[3] = 96 h, MCF7 cells, 4 days incubation, read-out: Proliferation IC50 [μM] MCF7
[4] = DU-145, 96 h, DU145 cells, read-out: Proliferation IC50 [μM] DU145
[5] = HCT-116, 96 h, HCT116 cells, read-out: Proliferation IC50 [μM] HCT116
[6] = NCI-H460, 96 h, H460 cells, read-out: Proliferation IC50 [μM] H460
[7] = MCF7, MCF-7 cells, comparison with known compounds, read-out: MCF-7 IC50

Oc1ccc(Nc2ncc(Br)c(NCCN3CCOCC3)n2)cc1 [Example 2]
IC50 (CDK2/CycE): 700 nM

C#CCNc1nc(Nc2ccc3[nH]ncc3c2)ncc1Br [Example 37, N-[5-Bromo-4-(2-propynylamino)-2-pyrimidinyl]-indazol-5-amine]
Sw [1]: 0.006 g/L
IC50 (CDK2/CycE): 70 nM
IC50 (MCF-7 cells; [3]): 4 µM

CC(C)[C@H](CO)Nc1nc(Nc2ccc(S(N)(=O)=O)cc2)ncc1Br [Example 10]
IC50 [2, 4]: 0.5 µM
IC50 [2, 5]: 0.5 µM
IC50 [2, 6]: 0.5 µM
IC50 (CDK2/CycE): 4 nM
IC50 (MCF-7 cells; [3]): 0.2 µM

O=C1Cc2c([nH]c3ccc([N+](=O)[O-])cc23)-c2ccccc2N1 [Alsterpaullone, reference compound]
IC50 (MCF-7 cells; [7]): 1.2 µM

C#CCNc1nc(Nc2cccc(SC)c2)ncc1Br [Example 26]
IC50 (CDK2/CycE): 300 nM
IC50 (MCF-7 cells; [3]): 3 µM

NS(=O)(=O)c1ccc(Nc2ncc(Br)c(NCC3CC3)n2)cc1 [Example 46]
Sw [1]: 0.0069 g/L
IC50 (CDK2/CycE): 7 nM
IC50 (MCF-7 cells; [3]): 2 µM

C#CCNc1nc(Nc2cccc(S(=O)(=O)CCO)c2)ncc1Br [Example 21]
IC50 (CDK2/CycE): 400 nM
IC50 (MCF-7 cells; [3]): 2 µM

CC(C)[C@H](CO)Nc1nc(Nc2ccc(O)cc2)ncc1Br [Example 4]
Sw [1]: 0.042 g/L
IC50 (CDK2/CycE): 40 nM
IC50 (MCF-7 cells; [3]): 8 µM

COC[C@H](C)Nc1nc(Nc2cccc(S(=O)(=O)CCO)c2)ncc1Br [Example 17]
Sw [1]: 0.04 g/L
IC50 (CDK2/CycE): 1000 nM
IC50 (MCF-7 cells; [3]): > 10 µM

CCOCCOCCOc1nc(Nc2ccc(C(C)=O)cc2)ncc1Br [Example 86]
IC50 (CDK2/CycE): 3000 nM

C#CCOc1nc(Nc2cccc(O)c2)ncc1Br [Example 20]
IC50 (CDK2/CycE): 60 nM
IC50 (MCF-7 cells; [3]): 4 µM

C#CCOc1nc(Nc2cccc(OCC3CO3)c2)ncc1Br (centres unmarked) [Example 51]
IC50 (CDK2/CycE): 70 nM
IC50 (MCF-7 cells; [3]): 8 µM

NS(=O)(=O)c1ccc(Nc2ncc(Br)c(OCCCC(F)(F)F)n2)cc1 [Example 47]
IC50 [2, 4]: 0.9 µM
IC50 [2, 5]: 1.3 µM
IC50 [2, 6]: 1.8 µM
IC50 (CDK2/CycE): 12 nM
IC50 (MCF-7 cells; [3]): 0.7 µM

O=S(=O)(CCO)c1cccc(Nc2ncc(Br)c(NCCN3CCOCC3)n2)c1 [Example 18]
Sw [1]: 0.039 g/L
IC50 (CDK2/CycE): 2000 nM

CC(=O)c1ccc(Nc2ncc(Br)c(N[C@H](CO)C(C)C)n2)cc1 [Example 53]
Sw [1]: 0.026 g/L
IC50 (CDK2/CycE): 300 nM
IC50 (MCF-7 cells; [3]): 1.6 µM

CSc1ccc(Nc2ncc(Br)c(N[C@@H](CO)C(C)C)n2)cc1 [Example 15]
Sw [1]: 0.024 g/L
IC50 (CDK2/CycE): 300 nM
IC50 (MCF-7 cells; [3]): > 10 µM

C#CCNc1nc(Nc2ccc3c(c2)CCN3S(C)(=O)=O)ncc1Br [Example 39]
Sw [1]: 0.0016 g/L
IC50 (CDK2/CycE): 300 nM

C#CCNc1nc(Nc2ccc(CP(=O)(OCC)OCC)cc2)ncc1Br [Example 31]
Sw [1]: 0.0023 g/L
IC50 (CDK2/CycE): 800 nM
IC50 (MCF-7 cells; [3]): 7 µM

CC(=O)c1ccc(Nc2ncc(Br)c(OCCCC(F)(F)F)n2)cc1 [Example 84]
Sw [1]: 0.0005 g/L
IC50 (CDK2/CycE): 400 nM

C#CCNc1nc(Nc2ccc3scnc3c2)ncc1Br [Example 38, N-[5-Bromo-4-(2-propynylamino)-2-pyrimidinyl]-benzothiazole-5-amine]
IC50 (CDK2/CycE): 80 nM
IC50 (MCF-7 cells; [3]): > 10 µM

CC(=O)c1ccc(Nc2ncc(Br)c(NCCc3c[nH]cn3)n2)cc1 [Example 87]
Sw [1]: 0.003 g/L
IC50 (CDK2/CycE): 250 nM
IC50 (MCF-7 cells; [3]): 0.8 µM

CC(=O)c1ccc(Nc2ncc(Br)c(N[C@@H](CO)C(C)C)n2)cc1 [Example 56]
Sw [1]: 0.023 g/L
IC50 (CDK2/CycE): 80 nM
IC50 (MCF-7 cells; [3]): 4 µM

NS(=O)(=O)c1ccc(Nc2ncc(Br)c(NCCN3CCOCC3)n2)cc1 [Example 8]
Sw [1]: 0.007 g/L
IC50 (CDK2/CycE): < 10 nM
IC50 (MCF-7 cells; [3]): 4 µM

CCOC(=O)CCCNc1nc(Nc2ccc(C(C)=O)cc2)ncc1Br [Example 85]
Sw [1]: 0.001 g/L
IC50 (CDK2/CycE): 2000 nM

C#CCNc1nc(Nc2ccc(SC)cc2)ncc1Br [Example 16, 5-Bromo-N2-(4-methylthiophenyl)-N4-2-propynyl-2,4-pyrimidine diamine]
IC50 (CDK2/CycE): 300 nM
IC50 (MCF-7 cells; [3]): 3 µM

O=C1Cc2c([nH]c3ccc(Br)cc23)-c2ccccc2N1 [Kenpaullone, reference compound]
IC50 (MCF-7 cells; [7]): 6 µM

C#CCNc1nc(Nc2ccc(O)cc2)ncc1Br [Example 5, 4-[[5-Bromo-4-(2-propynylamino)-2-pyrimidinyl]amino]-phenol]
Sw [1]: 0.043 g/L
IC50 (CDK2/CycE): 90 nM
IC50 (MCF-7 cells; [3]): 10 µM

C#CCNc1nc(Nc2ccc(SC(F)F)cc2)ncc1Br [Example 23, 5-Bromo-N2-(4-difluoromethylthiophenyl)-N4-2-propynyl-2,4-pyrimidine diamine]
IC50 (CDK2/CycE): 180 nM
IC50 (MCF-7 cells; [3]): 3 µM

Cn1cnc2c(NCc3ccccc3)nc(NCCO)nc21 [Olomoucine, reference compound]
IC50 (MCF-7 cells; [7]): 30 µM

C#CCNc1nc(Nc2cccc(S(=O)(=O)C(F)(F)F)c2)ncc1Br [Example 27]
IC50 (CDK2/CycE): > 10000 nM

C#CCNc1nc(Nc2cccc(S(=O)(=O)NCCCC)c2)ncc1Br [Example 34]
IC50 (CDK2/CycE): 1800 nM

COC[C@H](C)Nc1nc(Nc2ccc(SC)cc2)ncc1Br [Example 12]
IC50 (CDK2/CycE): 400 nM
IC50 (MCF-7 cells; [3]): 4 µM

C#CCOc1nc(Nc2ccc(OCC(O)CN3CCN(c4ccccc4C#N)CC3)cc2)ncc1Br (centres unmarked) [Example 98]
IC50 (CDK2/CycE): 2000 nM

C#CCNc1nc(Nc2cccc(SC(F)(F)F)c2)ncc1Br [Example 35, 5-Bromo-N4-2-propynyl-N2-(3-trifluoromethylthiophenyl)-2,4-pyrimidine diamine]
IC50 (CDK2/CycE): 120 nM
IC50 (MCF-7 cells; [3]): > 10 µM

CSc1ccc(Nc2ncc(Br)c(NCCN3CCOCC3)n2)cc1 [Example 13]
IC50 (CDK2/CycE): 2000 nM
IC50 (MCF-7 cells; [3]): > 10 µM

CC(C)[C@H](CO)Nc1nc(Nc2cccc(Cl)c2)c2ncn(C(C)C)c2n1 [Purvalanol A, reference compound]
IC50 (MCF-7 cells; [7]): 2 µM

CSc1ccc(Nc2ncc(Br)c(NC(CO)CO)n2)cc1 [Example 14]
Sw [1]: 0.013 g/L
IC50 (CDK2/CycE): 200 nM
IC50 (MCF-7 cells; [3]): 3 µM

C#CCNc1nc(Nc2ccc(SC(F)(F)F)cc2)ncc1Br [Example 24, 5-Bromo-N4-2-propynyl-N2-(4-trifluoromethylthiophenyl)-2,4-pyrimidine diamine]
IC50 (CDK2/CycE): 400 nM
IC50 (MCF-7 cells; [3]): 5 µM

C#CCOc1nc(Nc2ccc(OCC(O)CN3CCN(Cc4ccc5c(c4)OCO5)CC3)cc2)ncc1Br (centres unmarked) [Example 96]
IC50 (CDK2/CycE): 400 nM

C#CCNc1nc(Nc2ccc(C(C)=O)cc2)ncc1Br [Example 50, 1-[4-[(5-Bromo-4-(2-propynylamino)-2-pyrimidinyl)amino]phenyl]-ethanone]
IC50 (CDK2/CycE): 150 nM

COC[C@H](C)Nc1nc(Nc2ccc(O)cc2)ncc1Br [Example 1]
IC50 (CDK2/CycE): 300 nM
IC50 (MCF-7 cells; [3]): 8 µM

C#CCNc1nc(Nc2ccc(S(N)(=O)=O)cc2)ncc1Br [Example 11]
IC50 [2, 4]: 0.2 µM
IC50 [2, 5]: 0.3 µM
IC50 [2, 6]: 0.5 µM
IC50 (CDK2/CycE): 6 nM
IC50 (MCF-7 cells; [3]): 0.2 µM
IC50 (MCF-7 cells; [7]): 0.2 µM

— patent publication US7598260B2, “CDK-inhibitory pyrimidines, their production and use as pharmaceutical agents” (Bayer Schering Pharma Aktiengesellschaft, priority 2001, dated 2009)
